According to patent publication US8404856B2, “Non-nucleoside reverse transcriptase inhibitors” (Merck Sharp & Dohme Corp., priority 2007, dated 2013):
Read-outs that look alike come from different tables or passages of the source.

Experiments:
[1] = target: HIV-1 RT enzyme (wild-type) (Human immunodeficiency virus type 1 group M subtype B, UniProt P04585); assay: ECL assay for inhibition of HIV reverse transcriptase (WT); format: biochemical
Experimental: (§1) 100 μL reaction mixtures were initiated with a combination of primer-template substrate (10 nM final concentration) and dNTPs (0.6 μM dNTPs, 1.25 μM BrdUTP). The heterodimeric nucleic acid substrate was generated by annealing the DNA primer pD500 (described in Shaw-Reid et al., J. Biol. Chem., 278: 2777-2780; obtained from Integrated DNA Technologies) to t500, a 500 nucleotide RNA template created by in vitro transcription (see Shaw-Reid et al., J. Biol. Chem., 278: 2777-2780). After 1 hour incubation at 37° C., reactions were quenched by 10 μL of 1 N NaOH. Microtiter plates were incubated for an additional 30 minutes at room temperature and then neutralized with 10 μL of 1 N HCl. A mixture of detection buffer containing ruthenylated anti-BrdU antibody and streptavidin coated magnetic beads were added to the plate and incubated at room temperature for 1.5 hours prior to quantification via electrochemiluminescence instrument.

[2] = target: T1, HIV reverse transcriptase with the K103N mutation (Human immunodeficiency virus type 1 group M subtype B, UniProt P04585, K690N); assay: ECL assay for inhibition of mutant HIV reverse transcriptase (K103N); format: biochemical, HIV-1
T1 construct: made in house
Experimental: as §1
(§2) Analogous assays were conducted substituting mutant HIV strains to determine the […] inhibition of compounds of the present invention against mutant HIV reverse transcriptase. In one strain the reverse transcriptase has the Y181C mutation and in the other strain the reverse transcriptase has the K103N mutation. The mutations were generated with the […] site-directed mutagenesis kit (Stratagene).

[3] = target: T2, HIV reverse transcriptase with the Y181C mutation (Human immunodeficiency virus type 1 group M subtype B, UniProt P04585, Y768C); assay: ECL assay for inhibition of mutant HIV reverse transcriptase (Y181C); format: biochemical, HIV-1
T2 construct: made in house
Experimental: as §1, §2

[4] = tested on: wild type HIV-1; assay: Spread assay: inhibition of acute HIV-1 infection of T-lymphoid cells (WT); format: cell-based; conditions: Human immunodeficiency virus 1, T-lymphoid; wild type HIV-1, 10% FBS; read-out: Spread (WT) CIC95 (10% FBS)
Experimental: (§3) Assays for the inhibition of acute HIV-1 infection of T-lymphoid cells (alternatively referred to herein as the “spread assay”) were conducted in accordance with Vacca, J. P. et al., Proc. Natl. Acad. Sci. USA 1994, 91: 4096. The assays tested for inhibition of wild type HIV-1 and of HIV strains containing the Y181C or K103N mutation. […] Table C also reports the CIC95 values of certain of the title compounds of Examples 1-25 obtained in the assays employing the Y181C mutant strain and the K103N mutant strain.

[5] = tested on: HIV strain containing the Y181C mutation; assay: Spread assay: inhibition of acute HIV-1 infection of T-lymphoid cells (Y181C); format: cell-based; conditions: Human immunodeficiency virus 1, T-lymphoid, read-out: Spread (Y181C) CIC95 (10% FBS)
Experimental: as §3

[6] = tested on: T-lymphoid cells; format: cell-based
Experimental: Cytotoxicity was determined by microscopic examination of the cells in each well in the spread assay, wherein a trained analyst observed each culture for any of the following morphological changes as compared to the control cultures: pH imbalance, cell abnormality, cytostatic, cytopathic, or crystallization (i.e., the compound is not soluble or forms crystals in the well). The toxicity value assigned to a given compound is the lowest concentration of the compound at which one of the above changes is observed.

[7] = tested on: HIV strain containing the K103N mutation; assay: Spread assay: inhibition of acute HIV-1 infection of T-lymphoid cells (K103N); format: cell-based; conditions: Human immunodeficiency virus 1, T-lymphoid, read-out: Spread (K103N) CIC95 (10% FBS)
Experimental: as §3

[8] = wild-type HIV-1 RT, read-out: ECL Assay (WT) IC50
[9] = K103N mutant RT, read-out: ECL Assay (K103N) IC50
[10] = Y181C mutant RT, read-out: ECL Assay (Y181C) IC50

SMILES	IC50 [1, 8] [nM]	IC50 [2, 9] [nM]	IC50 [3, 10] [nM]	IC95 [4] [nM]	IC95 [5] [nM]	Cytotoxicity: no cytotoxicity at concentrations up to [6] [nM]	IC50 [1] [nM]	IC50 [2] [nM]	IC50 [3] [nM]	IC95 [7] [nM]	Cytotoxicity: no cytotoxicity at concentrations of up to [6] [µM]
N#Cc1cc(Cl)cc(Oc2c(Cl)ccn(Cc3n[nH]c4ncccc34)c2=O)c1 [Compound 21-8, 3-chloro-5-{[4-chloro-2-oxo-1-(1H-pyrazolo[3,4-b]pyridin-3-ylmethyl)-1,2-dihydropyridin-3-yl]oxy}benzonitrile]	0.8	1.4	1	3	8	> 833	–	–	–	–	–
Cl.Nc1ccc2c(Cn3ccc(C(F)(F)F)c(Oc4cc(Cl)cc(Cl)c4)c3=O)n[nH]c2n1 [Compound 20-3, 3-{[3-(3,5-dichlorophenoxy)-2-oxo-4-(trifluoromethyl)pyridin-1(2H)-yl]methyl}-1H-pyrazolo[3,4-b]pyridin-6-aminium chloride]	–	–	–	20	169	> 833	1.6	5.9	1.6	87	–
N#Cc1cc(Cl)cc(Oc2cc(NCc3n[nH]c4ncccc34)[nH]c(=O)c2Cl)c1 [Compound 8-5, 3-chloro-5-({3-chloro-2-oxo-6-[(1H-pyrazolo[3,4-b]pyridin-3-ylmethyl)amino]-1,2-dihydropyridin-4-yl}oxy)benzonitrile]	0.9	11	5.7	34	–	–	–	–	–	833	> 8.5
CCOC(=O)c1cc(Cl)cc(Oc2c(Cl)c(CCc3n[nH]c4ncccc34)[nH]c(=O)c2Cl)c1 [Compound 5-7, ethyl 3-chloro-5-({3,5-dichloro-2-oxo-6-[2-(1H-pyrazolo[3,4-b]pyridin-3-yl)ethyl]-1,2-dihydropyridin-4-yl}oxy)benzoate]	3.5	52	49	1220	–	–	–	–	–	–	> 8.5
N#Cc1cc(Cl)cc(Oc2cc(Cn3c(=O)[nH]c4ccccc43)[nH]c(=O)c2Cl)c1 [Compound 9-8, 3-chloro-5-({3-chloro-2-oxo-6-[(2-oxo-2,3-dihydro-1H-benzimidazol-1-yl)methyl]-1,2-dihydropyridin-4-yl}oxy)benzonitrile]	4.8	13	6.3	638	–	–	–	–	–	–	> 8.5
N#Cc1cc(Cl)cc(Oc2cc(CCc3n[nH]c4nc(N)ccc34)[nH]c(=O)c2Cl)c1 [Compound 4-4, 3-({6-[2-(6-amino-1H-pyrazolo[3,4-b]pyridin-3-yl)ethyl]-3-chloro-2-oxo-1,2-dihydropyridin-4-yl}oxy)-5-chlorobenzonitrile]	1.6	14	7.9	39	438	> 833	–	–	–	207	–
N#Cc1cc(Cl)cc(Oc2c(Cl)ccn(Cc3n[nH]c4nc(N)ccc34)c2=O)c1.O=C(O)C(F)(F)F [Compound 22, 3-({1-[(6-amino-1H-pyrazolo[3,4-b]pyridin-3-yl)methyl]-4-chloro-2-oxo-1,2-dihydropyridin-3-yl}oxy)-5-chlorobenzonitrile trifluoroacetate]	–	–	–	2	63	> 833	1.3	2.1	1.8	7	–
N#Cc1cc(C#N)cc(Oc2c(C(F)(F)F)ccn(Cc3n[nH]c4ncccc34)c2=O)c1 [Compound 18-4, 5-{[2-oxo-1-(1H-pyrazolo[3,4-b]pyridine-3-ylmethyl)-4-(trifluoromethyl)-1,2-dihydropyridin-3-yl]oxy}isophthalonitrile]	3.4	5.1	4.1	7	8	> 833	–	–	–	6	–
CN(Cc1ccccc1Cl)C(=O)Cn1ccc(C(F)(F)F)c(Oc2cc(Cl)cc(C#N)c2)c1=O [Compound 14, N-(2-chlorobenzyl)-2-[3-(3-chloro-5-cyanophenoxy)-2-oxo-4-(trifluoromethyl)pyridin-1(2H)-yl]-N-methylacetamide]	300	440	290	330	–	> 833	–	–	–	284	–
Cc1ccn(Cc2n[nH]c3ncccc23)c(=O)c1Oc1cc(Cl)cc(C#N)c1 [Compound 11-7, 3-chloro-5-{[4-methyl-2-oxo-1-(1H-pyrazolo[3,4-b]pyridin-3-ylmethyl)-1,2-dihydropyridin-3-yl]oxy}benzonitrile]	2.5	3.7	3.2	7	–	> 833	–	–	–	14	–
Cc1ccn(CCc2n[nH]c3ncccc23)c(=O)c1Oc1cc(Cl)cc(C#N)c1 [Compound 12-7, 3-chloro-5-({4-methyl-2-oxo-1-[2-(1H-pyrazolo[3,4-b]pyridin-3-yl)ethyl]-1,2-dihydropyridin-3-yl}oxy)benzonitrile]	25	58	51	248	–	> 833	–	–	–	447	–
Cc1nc(OCc2n[nH]c3ncccc23)c(Cl)c(Oc2cc(Cl)cc(C#N)c2)c1Cl [Compound 7-1, 3-chloro-5-{[3,5-dichloro-2-methyl-6-(1H-pyrazolo[3,4-b]pyridin-3-ylmethoxy)pyridin-4-yl]oxy}benzonitrile]	1.3	27	3.5	100	–	–	–	–	–	1700	> 8.5
N#Cc1cc(Cl)cc(Oc2c(C(F)(F)F)ccn(CC(=O)Nc3ccc(S(N)(=O)=O)cc3Cl)c2=O)c1 [Compound 15, N-[4-(aminosulfonyl)-2-chlorophenyl]-2-[3-(3-chloro-5-cyanophenoxy)-2-oxo-4-(trifluoromethyl)pyridin-1 (2H)-yl]acetamide]	3.3	4.8	3.9	10	–	> 833	–	–	–	6	–
N#Cc1cc(Cl)cc(Oc2cc(CCc3n[nH]c4ncccc34)ncc2Cl)c1 [Compound 6-5, 3-chloro-5-({5-chloro-2-[2-(1H-pyrazolo[3,4-b]pyridin-3-yl)ethyl]pyridin-4-yl}oxy)benzonitrile]	25	87	270	103	–	–	–	–	–	361	> 8.5
N#Cc1cc(Cl)cc(Oc2c(Cl)c(CCc3n[nH]c4ncccc34)[nH]c(=O)c2Cl)c1 [Compound 5-6, 3-chloro-5-({3,5-dichloro-2-oxo-6-[2-(1H-pyrazolo[3,4-b]pyridin-3-yl)ethyl]-1,2-dihydropyridin-4-yl}oxy)benzonitrile]	1.2	1.8	1.6	42	–	–	–	–	–	367	> 8.5
N#Cc1cc(Cl)cc(Oc2cc(C(O)c3n[nH]c4ncccc34)[nH]c(=O)c2Cl)c1 (stereo not shown) [Compound 25-2]	–	–	–	28	–	–	3.2	13	4.7	180	–
